Measurements from paper PMC10313180, “Structure snapshots reveal the mechanism of a bacterial membrane lipoprotein N-acyltransferase” (Science Advances, 2023).
No end group written: not given here. *: point of attachment. dipalmitoylglyceryl = dipalmitoylglyceryl (diacylglyceryl moiety on the cysteine); Palmitoyl = CCCCCCCCCCCCCCCC(=O)*

T1: LntPae (Pseudomonas aeruginosa, UniProt Q9ZI86)
T1 construct: gene lnt; full length, N-terminal thrombin-cleavable His6 tag, pET28a, expressed in E. coli C41(DE3); membrane protein in LMNG micelles or cubic mesophase
T1 sequence (Q9ZI86 1-511): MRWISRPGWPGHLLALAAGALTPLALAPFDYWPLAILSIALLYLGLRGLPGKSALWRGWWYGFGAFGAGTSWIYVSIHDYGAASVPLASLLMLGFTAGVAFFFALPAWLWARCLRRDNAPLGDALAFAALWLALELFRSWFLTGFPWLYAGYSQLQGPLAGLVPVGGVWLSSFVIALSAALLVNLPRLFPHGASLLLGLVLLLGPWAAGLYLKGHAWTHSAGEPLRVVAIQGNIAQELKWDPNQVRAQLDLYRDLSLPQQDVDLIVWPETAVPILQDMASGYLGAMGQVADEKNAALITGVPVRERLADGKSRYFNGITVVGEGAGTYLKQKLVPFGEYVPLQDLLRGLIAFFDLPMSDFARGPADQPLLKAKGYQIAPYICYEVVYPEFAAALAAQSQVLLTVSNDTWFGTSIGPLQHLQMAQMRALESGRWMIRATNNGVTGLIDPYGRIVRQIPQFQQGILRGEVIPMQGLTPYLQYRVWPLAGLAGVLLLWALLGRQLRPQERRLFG

B1: Pam3CSK4, Cys(Pam3)-Ser-(Lys)4 (peptide)
peptide: Palmitoyl-C(dipalmitoylglyceryl)SKKKK
notes: Printed in three-letter code: Cys-Ser-Lys-Lys-Lys-Lys; triacylated bacterial lipoprotein peptide analog; Triacylated lipopeptide; also called TA-BLPtide product; BLPtide; source: synthetic peptide (commercial or in-house synthesized BLP peptide analog)

Columns and labels:
LntPae [1] = target: T1, LntPae; test: TLC of FP2 to FP3 conversion; assay type: biochemical; conditions: acyl donor, HA-treated enzyme; 500 uM GPL, 150 uM FP2, pH 7.5, 37 C, 90 min
LntEco [2] = target: T2, LntEco (Escherichia coli, UniProt P23930); test: TLC of FP2 to FP3 conversion; assay type: biochemical; conditions: acyl donor, HA-treated enzyme; 500 uM GPL, 150 uM FP2, pH 7.5, 37 C, 90 min
T2 construct: gene lnt; full length, N-terminal thrombin-cleavable His6 tag, pET28a, expressed in E. coli C43(DE3); membrane protein in LMNG or DDM micelles; 57 kDa; HA-treated for GPL specificity assay

LntEco [3] = target: T2, LntEco; test: X-ray crystallography (in surfo); assay type: binding; conditions: covalent; dithiocarbamate at catalytic Cys387; lyso-PE also bound; 2.66 A
LntPae [4] = target: T1, LntPae; test: X-ray crystallography (in meso); assay type: binding; conditions: covalent; at catalytic Cys382; two monooleins in pocket; 2.6 A
[5] = target: T3, LntEco Cys387Ala (apolipoprotein N-acyltransferase from E. coli, inactive mutant) (E. coli, UniProt P23930 1-512, Cys387Ala); test: cryo-EM structure; Lnt mutant (16 mg/ml) incubated with Pam3CSK4 or FP2 (10 mg/ml in DMSO) for 1 hour at 21°C, then Superdex 200 10/300 Increase in 20 mM sodium citrate pH 6, 150 mM NaCl, 0.001% LMNG; protein in a detergent micelle; conditions: both partners purified
T3 construct: Apolipoprotein N-acyltransferase Lnt, E. coli, 57-kDa membrane protein; gene synthesized and cloned into pET28a (Nde I/Xho I); residues counted in E. coli numbering; The His6 tag is thrombin-cleavable; no cleavage step is described; In a detergent micelle (LMNG); also called Lnt Cys387Ala; C387A; source: E. coli C43(DE3), purified (Ni-NTA, Superdex 200) in LMNG

Molecule | TLC of FP2 to FP3 conversion (LntPae [1]) | TLC of FP2 to FP3 conversion (LntEco [2]) | X-ray crystallography (in surfo) (LntEco [3]) | X-ray crystallography (in meso) (LntPae [4]) | binding result [5]
CCCCCCCC/C=C\CCCCCCCC(=O)O[C@H](COC(=O)CCCCCCCCCCCCCCC)COP(=O)(O)OCCN [POPE, palmitoyloleoylphosphatidylethanolamine] | (POPE) were effective acyl donors for LntEco and LntPae | (POPE) were effective acyl donors for LntEco and LntPae |  |  | 
CCCCCCCC/C=C\CCCCCCCC(=O)O[C@H](COC(=O)CCCCCCCCCCCCCCC)COP(=O)(O)OCC(O)CO (stereo partly shown) [POPG, palmitoyloleoylphosphatidylglycerol] | (POPE) were effective acyl donors for LntEco and LntPae | palmitoyloleoylphosphatidylglycerol (POPG) and palmitoyloleoylphosphatidylethanolamine (POPE) were effective acyl donors for LntEco |  |  | 
CCCCCCCCCCCCCCN=C=S [TITC, tetradecyl-1-isothiocyanate] |  |  | Crystals of the TITC-modified protein (Lnt-TITC), grown in the presence of E. coli GPLs | a structure of the TITC-modified LntPae was obtained with two monooleins in the binding pocket | 
B1 |  |  |  |  | binds
